Tests used:
[1] = biological target: T1, human σ1 receptor (Homo sapiens, UniProt Q99720); experiment: Human σ1 receptor radioligand assay ([3H](+)-pentazocine, transfected HEK-293 membranes); conditions: class scale, read-out: Binding σ-1 Ki
T1 construct: expressed in transfected cells; host or cells: HEK-293
Summary of the method: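 Membranes (7 μg) from transfected HEK-293 cells were incubated with 5 nM [3H](+)-pentazocine in 50 mM Tris-HCl, pH 8, for 120 minutes at 37° C, with 10 μM haloperidol defining non-specific binding. Bound radioactivity was filtered and counted by scintillation. Results are % inhibition at 1 or 10 μM or Ki from five concentrations.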

[2] = biological target: T2, human σ2/TMEM97 receptor (Homo sapiens, UniProt Q5BJF2); experiment: Binding assay to human σ2/TMEM97 receptor ([3H]-DTG, transfected HEK-293 membranes); conditions: class scale, read-out: Binding σ-2 Ki
T2 construct: expressed in transfected cells; host or cells: HEK-293
T2 sequence (Q5BJF2 whole entry): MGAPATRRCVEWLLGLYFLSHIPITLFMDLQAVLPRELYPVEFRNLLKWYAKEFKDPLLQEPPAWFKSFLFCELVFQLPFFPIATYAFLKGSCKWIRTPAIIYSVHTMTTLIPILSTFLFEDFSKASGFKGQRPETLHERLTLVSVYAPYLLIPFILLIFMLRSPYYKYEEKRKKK
Summary of the method: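 Membranes (15 μg) from transfected HEK-293 incubated 120 min at 25 °C with 10 nM [3H]-DTG in 50 mM Tris-HCl pH 8.0; nonspecific binding with 10 μM haloperidol. Filtration and scintillation counting; % inhibition at 1 or 10 μM, or Ki from five concentrations.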

T1 sequence (Q99720 whole entry): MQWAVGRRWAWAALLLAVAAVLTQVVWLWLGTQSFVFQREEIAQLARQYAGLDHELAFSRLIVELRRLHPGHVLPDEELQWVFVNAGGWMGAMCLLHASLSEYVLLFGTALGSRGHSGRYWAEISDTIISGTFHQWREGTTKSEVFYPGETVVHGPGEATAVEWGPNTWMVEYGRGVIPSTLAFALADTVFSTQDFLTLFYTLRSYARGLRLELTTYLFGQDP

In the case of `Cc1cc(-c2nn(C)c(Cl)c2CN2CC3(CCN(CCC(C)(C)C)CC3)CC2=O)no1` [Example 116, 2-((5-Chloro-1-methyl-3-(5-methylisoxazol-3-yl)-1H-pyrazol-4-yl)methyl)-8-(3,3-dimethylbutyl)-2,8-diazaspiro[4.5]decan-3-one], the Ki [1] is reported as 100 to 500 nM and the Ki [2] is reported as less than 100 nM.

For `Cc1cc(-c2nn(C)c(Cl)c2CN2CCCCC(NCCC(C)C)C2=O)no1` (stereo not shown) [Example 117, 1-((5-Chloro-1-methyl-3-(5-methylisoxazol-3-yl)-1H-pyrazol-4-yl)methyl)-3-(isopentylamino)azepan-2-one], the Ki [1] was 100 to 500 nM and the Ki [2] was greater than 1000 nM.

Work on `Cc1cc(-c2nn(C)c(Cl)c2CN2CCCC(NCCC(C)C)CC2=O)no1` (stereo not shown) [Example 118, 1-((5-Chloro-1-methyl-3-(5-methylisoxazol-3-yl)-1H-pyrazol-4-yl)methyl)-4-(isopentylamino)azepan-2-one] yielded a Ki [1] greater than 1000 nM and a Ki [2] of 100 to 500 nM.

Work on `Cc1cc(-c2nn(C)c(Cl)c2CCN2CCCC[C@H](NCCC(C)C)C2)no1` [Example 119, (S)-1-(2-(5-Chloro-1-methyl-3-(5-methylisoxazol-3-yl)-1H-pyrazol-4-yl)ethyl)-N-isopentylazepan-3-amine] yielded a Ki [1] of less than 100 nM and a Ki [2] of 100 to 500 nM.

`Cc1cc(-c2nn(C)c(Cl)c2CC(=O)N2CCC3(CCN(CCC(C)C)CC3)CC2)no1` [Example 120] was tested, and the Ki [1] was 100 to 500 nM and the Ki [2] was less than 100 nM.

Work on `Cc1cc(-c2nn(C)c(Cl)c2C(=O)N2CCCC(CN(C)CCC(C)(C)C)C2)no1` (stereo not shown) [Example 121, (5-Chloro-1-methyl-3-(5-methylisoxazol-3-yl)-1H-pyrazol-4-yl)(3-(((3,3-dimethylbutyl)(methyl)amino)methyl)piperidin-1-yl)methanone] yielded a Ki [1] of 100 to 500 nM and a Ki [2] of 100 to 500 nM.

In the case of `Cc1cc(-c2nn(C)c(Cl)c2C(=O)N2CCCC(CN(C)CC(C)C)C2)no1` (stereo not shown) [Example 122, (5-Chloro-1-methyl-3-(5-methylisoxazol-3-yl)-1H-pyrazol-4-yl)(3-((isobutyl(methyl)amino)methyl)piperidin-1-yl)methanone], the Ki [1] is reported as greater than 1000 nM and the Ki [2] is reported as greater than 1000 nM.

Work on `Cc1cc(-c2nn(C)c(Cl)c2C(=O)N2CC[C@]3(C2)C[C@@H](NCCC(C)(C)C)C3)no1` [Example 123, (5-Chloro-1-methyl-3-(5-methylisoxazol-3-yl)-1H-pyrazol-4-yl)((2r,4s)-2-((3,3-dimethylbutyl)amino)-6-azaspiro[3.4]octan-6-yl)methanone] yielded a Ki [1] greater than 1000 nM and a Ki [2] of less than 100 nM.

For `Cn1nc(-c2cccc(O)n2)c(C(=O)N2CCC3(CCN(CCC(C)(C)C)CC3)CC2)c1Cl` [Example 124, (5-Chloro-3-(6-hydroxypyridin-2-yl)-1-methyl-1H-pyrazol-4-yl)(9-(3,3-dimethylbutyl)-3,9-diazaspiro[5.5]undecan-3-yl)methanone], the Ki [1] was greater than 1000 nM and the Ki [2] was 100 to 500 nM.

Molecule `Cc1cc(-c2nn(C)c(Cl)c2C(=O)N2CCC[C@H](CNCCC(C)C)C2)no1` [Example 125, (R)-(5-Chloro-1-methyl-3-(5-methylisoxazol-3-yl)-1H-pyrazol-4-yl)(3-((isopentylamino)methyl)piperidin-1-yl)methanone] has a Ki [1] greater than 1000 nM and a Ki [2] of 500 to 1000 nM.

`Cc1cc(-c2nn(C)c(Cl)c2C(=O)N2CCC[C@@H](CNCCC(C)C)C2)no1` [Example 126, (S)-(5-Chloro-1-methyl-3-(5-methylisoxazol-3-yl)-1H-pyrazol-4-yl)(3-((isopentylamino)methyl)piperidin-1-yl)methanone] gave a Ki [1] greater than 1000 nM and a Ki [2] greater than 1000 nM.

In the case of `CCn1nc(-c2cc(C)on2)c(C(=O)NC2CC3(CCN(CCC(C)(C)C)CC3)C2)c1Cl` [Example 127, 5-Chloro-N-(7-(3,3-dimethylbutyl)-7-azaspiro[3.5]nonan-2-yl)-1-ethyl-3-(5-methylisoxazol-3-yl)-1H-pyrazole-4-carboxamide], the Ki [1] is reported as less than 100 nM and the Ki [2] is reported as less than 100 nM.

`Cc1cc(-c2nn(C)c(Cl)c2C(=O)N2CCCC3(CCN(Cc4ccc(F)c(F)c4)CC3)C2)no1` [Example 128, (5-Chloro-1-methyl-3-(5-methylisoxazol-3-yl)-1H-pyrazol-4-yl)(9-(3,4-difluorobenzyl)-2,9-diazaspiro[5.5]undecan-2-yl)methanone] was tested, and the Ki [1] was 100 to 500 nM and the Ki [2] was less than 100 nM.

`Cc1cc(-c2nn(C)c(Cl)c2C(=O)N2CCC3(CCN(Cc4ccc(F)cc4)CC3)CC2)no1` [Example 129, (5-Chloro-1-methyl-3-(5-methylisoxazol-3-yl)-1H-pyrazol-4-yl)(9-(4-fluorobenzyl)-3,9-diazaspiro[5.5]undecan-3-yl)methanone] gave a Ki [1] of 100 to 500 nM and a Ki [2] of less than 100 nM.

`Cc1cc(-c2nn(C)c(Cl)c2C(=O)N2CCC3(CCN(Cc4ccc(F)c(F)c4)CC3)CC2)no1` [Example 130, (5-Chloro-1-methyl-3-(5-methylisoxazol-3-yl)-1H-pyrazol-4-yl)(9-(3,4-difluorobenzyl)-3,9-diazaspiro[5.5]undecan-3-yl)methanone] gave a Ki [1] of 500 to 1000 nM and a Ki [2] of 100 to 500 nM.

`Cc1cc(-c2nn(C)c(Cl)c2C(=O)N2CCC3(CCN(Cc4ccc(C#N)c(F)c4)CC3)CC2)no1` [Example 131, 4-((9-(5-Chloro-1-methyl-3-(5-methylisoxazol-3-yl)-1H-pyrazole-4-carbonyl)-3,9-diazaspiro[5.5]undecan-3-yl)methyl)-2-fluorobenzonitrile] was tested, and the Ki [1] was 500 to 1000 nM and the Ki [2] was 500 to 1000 nM.

Molecule `CC(C)c1cc(-c2nn(C)c(Cl)c2C(=O)N2CCCC3(CCN(CCC(C)(C)C)CC3)C2)no1` [Example 132, (5-Chloro-3-(5-isopropylisoxazol-3-yl)-1-methyl-1H-pyrazol-4-yl)(9-(3,3-dimethylbutyl)-2,9-diazaspiro[5.5]undecan-2-yl)methanone] has a Ki [1] of 100 to 500 nM and a Ki [2] of less than 100 nM.

`CCc1nc(C)c(-c2nn(C)c(Cl)c2C(=O)N2CCCC3(CCN(CCC(C)(C)C)CC3)C2)o1` [Example 133, (5-Chloro-3-(2-ethyl-4-methyloxazol-5-yl)-1-methyl-1H-pyrazol-4-yl)(9-(3,3-dimethylbutyl)-2,9-diazaspiro[5.5]undecan-2-yl)methanone] gave a Ki [1] of 500 to 1000 nM and a Ki [2] of less than 100 nM.

Molecule `CCn1nc(-c2cc(C)on2)c(C(=O)NC2CCC3(CC2)CN(CCC(C)(C)C)C3)c1Cl` [Example 134, 5-Chloro-N-(2-(3,3-dimethylbutyl)-2-azaspiro[3.5]nonan-7-yl)-1-ethyl-3-(5-methylisoxazol-3-yl)-1H-pyrazole-4-carboxamide] has a Ki [1] of less than 100 nM and a Ki [2] of less than 100 nM.

With `Cn1cc(-c2nn(C)c(Cl)c2C(=O)N2CCCC3(CCN(CCC(C)(C)C)CC3)C2)cn1` [Example 135, (5-Chloro-1,1′-dimethyl-1H,1′H-[3,4′-bipyrazol]-4-yl)(9-(3,3-dimethylbutyl)-2,9-diazaspiro[5.5]undecan-2-yl)methanone] the Ki [1] was greater than 1000 nM and the Ki [2] was less than 100 nM.

`CCc1cc(-c2nn(CC)c(Cl)c2C(=O)NC2CC3(CCN(CCC(C)(C)C)CC3)C2)no1` [Example 136, 5-Chloro-N-(7-(3,3-dimethylbutyl)-7-azaspiro[3.5]nonan-2-yl)-1-ethyl-3-(5-ethylisoxazol-3-yl)-1H-pyrazole-4-carboxamide] showed a Ki [1] of less than 100 nM and a Ki [2] of less than 100 nM.

With `CCc1cc(-c2nn(CC)c(Cl)c2C(=O)NC2CCC3(CC2)CN(CCC(C)(C)C)C3)no1` [Example 137, 5-Chloro-N-(2-(3,3-dimethylbutyl)-2-azaspiro[3.5]nonan-7-yl)-1-ethyl-3-(5-ethylisoxazol-3-yl)-1H-pyrazole-4-carboxamide] the Ki [1] was less than 100 nM and the Ki [2] was less than 100 nM.

Work on `CCn1ccc(-c2nn(C)c(Cl)c2C(=O)N2CCCC3(CCN(CCC(C)(C)C)CC3)C2)n1` [Example 138, (5-Chloro-1′-ethyl-1-methyl-1H,1′H-[3,3′-bipyrazol]-4-yl)(9-(3,3-dimethylbutyl)-2,9-diazaspiro[5.5]undecan-2-yl)methanone] yielded a Ki [1] of 500 to 1000 nM and a Ki [2] of less than 100 nM.

`CCn1nc(-c2ccon2)c(C(=O)NC2CC3(CCN(CCC(C)(C)C)CC3)C2)c1Cl` [Example 139, 5-Chloro-N-(7-(3,3-dimethylbutyl)-7-azaspiro[3.5]nonan-2-yl)-1-ethyl-3-(isoxazol-3-yl)-1H-pyrazole-4-carboxamide] showed a Ki [1] of 100 to 500 nM and a Ki [2] of less than 100 nM.

For `Cn1cc(-c2nn(C)c(Cl)c2C(=O)NC2CC3(CCN(CCC(C)(C)C)CC3)C2)cn1` [Example 140, 5-Chloro-N-(7-(3,3-dimethylbutyl)-7-azaspiro[3.5]nonan-2-yl)-1,1′-dimethyl-1H,1′H-[3,4′-bipyrazole]-4-carboxamide], the Ki [1] was 500 to 1000 nM and the Ki [2] was less than 100 nM.

For `Cc1cccc(-c2nn(C)c(Cl)c2C(=O)NC2CC3(CCN(CCC(C)(C)C)CC3)C2)n1` [Example 141, 5-Chloro-N-(7-(3,3-dimethylbutyl)-7-azaspiro[3.5]nonan-2-yl)-1-methyl-3-(6-methylpyridin-2-yl)-1H-pyrazole-4-carboxamide], the Ki [1] was less than 100 nM and the Ki [2] was less than 100 nM.

`CCn1nc(-c2ccon2)c(C(=O)NC2CCC3(CC2)CCN(CCC(C)(C)C)CC3)c1Cl` [Example 142, 5-Chloro-N-(3-(3,3-dimethylbutyl)-3-azaspiro[5.5]undecan-9-yl)-1-ethyl-3-(isoxazol-3-yl)-1H-pyrazole-4-carboxamide] was tested, and the Ki [1] was less than 100 nM and the Ki [2] was less than 100 nM.

Molecule `CCn1nc(-c2cc(C)on2)c(C(=O)NC2CCC3(CC2)CCN(CCC(C)(C)C)CC3)c1Cl` [Example 143, 5-Chloro-N-(3-(3,3-dimethylbutyl)-3-azaspiro[5.5]undecan-9-yl)-1-ethyl-3-(5-methylisoxazol-3-yl)-1H-pyrazole-4-carboxamide] has a Ki [1] of less than 100 nM and a Ki [2] of less than 100 nM.

Molecule `Cc1cc(-c2nn(C)c(Cl)c2C(=O)N2CC3(CCCN(CCC(C)(C)C)C3)C2)no1` [Example 144, (5-Chloro-1-methyl-3-(5-methylisoxazol-3-yl)-1H-pyrazol-4-yl)(6-(3,3-dimethylbutyl)-2,6-diazaspiro[3.5]nonan-2-yl)methanone] has a Ki [1] of 500 to 1000 nM and a Ki [2] of 100 to 500 nM.
